From US20250034139A1, “AMINE COMPOUNDS HAVING ANTI-INFLAMMATORY, ANTIFUNGAL, ANTIPARASITIC, AND ANTICANCER ACTIVITY” (PHARMA CINQ, LLC, priority 2013, published 2025)
Converted amounts (≈) assume the structure as drawn. Where two headings read alike, the source gives them in different places.

Key:
THP-1 cells = assay: Example C: compound screen, viable THP-1 cell count after 5 hours +/- LPS; assay type: cell-based, Human; conditions: for ability to inactivate pro-inflammatory THP-1 cells, in words (relative to benchmark AC): LPS-treated THP-1 cells
Excerpt: Background: THP-1 is a human acute myeloid leukemia (AML) cell line that can be induced into a macrophage-like cell with vitamin-D3 (vit-D3). In the macrophage, LPS (lipopolysaccharide; endotoxin) stimulation of toll-like receptor 4 (TLR-4) leads to NF-κB activation and secretion of inflammatory cytokines but also the priming of programmed death pathways through RIP and Caspase 8. The balance of this complex regulatory network is dependent on highly specific kinases, enzymes that require ATP. Disruption of either cytosolic pH or ATP availability/energy level uncouples this control network and the can macrophage shift away from production of inflammatory cytokines towards a programmed death event, which has the net effect of limiting inflammatory damage.

[1] = tested on: Trichophyton rubrum strains; assay: Example N: MIC and MFC (CLSI) against Trichophyton rubrum; assay type: cell-based; conditions: for MIC: read-out: MIC 100%, Range, incubated for 96 hrs, three clinical strains; for MFC: three clinical strains
Protocol: (§1) The objective of this study was to determine the antifungal activity of eight experimental compounds against a representative panel of fungal isolates, including Candida albicans, C. glabrata, Cryptococcus neoformans, Trichophyton rubrum, Aspergillus fumigatus, and Rhizopus spp. Antifungal activity was measured by minimum inhibitory concentration (MIC) and minimum fungicidal concentration (MFC).
(§2) Three recent clinical strains of each species, taken from the culture collection at the Center for Medical Mycology, Case Western University, were tested.
(§3) Compounds in powder form were dissolved in DMSO. Serial dilutions of each compound were then prepared in RPMI-1640 in a range of […].
(§4) MIC testing was performed according to the CLSI M27-A3 and M38-A2 standards for the susceptibility testing of yeasts and filamentous fungi, respectively (1, 2). Test isolates were subcultured from frozen slants onto potato dextrose agar plates (Trichophyton rubrum was subcultured onto oatmeal plates for conidia production) and checked for purity. Inocula were then prepared in RPMI-1640 (YNB for Cryptococcus) to a concentration of 0.5-2.5×10^3 colony-forming units (CFU)/ml or 0.4-5×10^4 conidia/ml for yeast and filamentous fungi, respectively.
(§5) MFC determinations were performed according to the modifications previously described by Canton et al. and Ghannoum and Isham. (3, 4) Specifically, the total contents of each clear well from the MIC assay were subcultured onto potato dextrose agar. To avoid antifungal carryover, the aliquots were allowed to soak into the agar and then were streaked for isolation once dry, thus removing the cells from the drug source.

[2] = tested on: Cryptococcus neoformans (serotype A); assay: Example L: Cryptococcus neoformans (serotype A) growth inhibition; assay type: cell-based; conditions: Cryptococcus neoformans; for MIC: read-out: MIC, uM (concentration for maximum - 99% of inhibition)
Protocol: Cryptococcus neoformans (serotype A) were plated in 96 well plates with 144 μl/well of 5×10e5 CFU/ml in YPD growth medium. Diluted compounds were then added to each well with concentration ranged from 0.05 to 10 μM as final concentration in duplicates. The plates were inoculated at 30° C. Two readings of OD at 600 nm were measured after 18 hr and […] treatments.
C12-imidazol had relative weak activity against Cryptococcus serotype A at low concentration. Data plotted was based on 26 hour reading because 18 hour reading was too low.
• 1. Pick a single colony of Cryptococcus from the Sabouraud Dextrose agar plate using the inoculum loop and inoculate into a 125 ml flask containing 25 ml of YPD growth medium • 2. Incubate at 30° C. with shaking at 220 rpm for 24 hours with loosen lid to allow air in and facilitates growth. • 3. Examine an aliquot of the culture under a microscope for yeast cell morphology and lack of bacterial contamination. • 4. Dilute the overnight culture with YPD medium at 1:100 dilution and count the number of cells as 8×10^6 cfu/ml. • 5. Make a final concentration of cells suspension at 5×10^5 cfu/ml in YPD medium after the stock culture had been stored at 4° C. for 3 days. • 6. Plate 144 μl/well of 5×10^5 cfu/ml cell suspension on 96-well plates. Part-II: Cryptococcus Growth Inhibition Testing with Compounds • 1. From 10 mM DMSO stock solutions, make serial dilutions of compounds to 0.0013, 0.0025, 0.0125, 0.025, 0.05, 0.125 and 0.25 mM solution • 2. Add 6 ul each of diluted compound solutions per well in duplicates. The final concentrations were 0, 0.05, 0.1, 0.5, 1.0, 2.0, 5.0 and 10 micromolar. • 3. Incubated all plates at 30° C. overnight with 175 rpm shaking. • 4. Read absorbance at OD600 after 18 and 26 hours for each plate. • 5. Calculated the % inhibition and IC50 of each compound against the untreated cell.

Rhizopus strains = assay: Example N: MIC and MFC (CLSI) against Rhizopus; assay type: cell-based, Rhizopus spp.; conditions: for MIC50 / MIC: Rhizopus; for MFC: range over Rhizopus strains, in 48 hr
Protocol: as §1, §2, §3, §4, §5

Candida albicans strains = assay: Example N: MIC and MFC (CLSI) against Candida albicans; assay type: cell-based; parameters: MIC at 50% inhibition / MIC at 100% inhibition: unit not given here; conditions: for MIC / MFC: Candida albicans, three clinical strains; for MIC: read-out: MIC 100%, Range
Protocol: as §1, §2, §3, §4, §5

Candida glabrata strains = assay: Example N: MIC and MFC (CLSI) against Candida glabrata; assay type: cell-based; conditions: for cidal activity (MFC within 4 dilutions of the MIC), in words: 3 strains; for MIC50 / MIC / MFC: Nakaseomyces glabratus; for MIC: read-out: MIC 100%; for MFC: range over Candida glabrata strains, in 48 hr
Protocol: as §1, §2, §3, §4, §5

[3] = tested on: Aspergillus fumigatus strains; assay: Example N: MIC and MFC (CLSI) against Aspergillus fumigatus; assay type: cell-based; conditions: for MIC50 / MIC: Aspergillus fumigatus; for MIC: read-out: MIC 100%
Protocol: as §1, §2, §3, §4, §5

[4] = Macrophage, direct inhibition, values of the earlier study (Table 25), read-out: IC50 value (μM) for inhibition of fungal growth, No macrophages
[5] = OD of 26 hour reading, 30° C., XLfit
[6] = read-out: IC50, uM (concentration for 50% of inhibition), OD of 26 hour reading, 30° C., XLfit

Row | Compound | Reduction in viable THP-1 cell count (percent change) from 0 hours, Mean ± SE (THP-1 cells; Compound (0.1 μM), No LPS) [%] | Reduction in viable THP-1 cell count (percent change) from 0 hours, Mean ± SE (THP-1 cells; Compound (0.1 μM), Plus LPS) [%] | Reduction in viable THP-1 cell count (percent change) from 0 hours, Mean ± SE (THP-1 cells; Compound (1.0 μM), No LPS) [%] | Reduction in viable THP-1 cell count (percent change) from 0 hours, Mean ± SE (THP-1 cells; Compound (1.0 μM), Plus LPS) [%] | MIC [1] [µg/mL] | MFC [1] [µg/mL] | MIC [2, 5] [µM] | MIC50 (Rhizopus strains; 24 h) [µg/mL] | MIC (Rhizopus strains; 24 h, read-out: MIC 100%) [µg/mL] | MIC50 (Rhizopus strains; 48 h) [µg/mL] | MIC (Rhizopus strains; 48 h, read-out: MIC 100%) [µg/mL] | MFC (Rhizopus strains) [µg/mL] | MIC (Candida albicans strains; 24 hr) [µg/mL] | MIC (Candida albicans strains; 48 hr) [µg/mL] | MFC (Candida albicans strains; 48 hr) [µg/mL] | MIC50 (Candida glabrata strains; 24 h) [µg/mL] | MIC (Candida glabrata strains; 24 h) [µg/mL] | MIC50 (Candida glabrata strains; 48 h) [µg/mL] | MIC (Candida glabrata strains; 48 h) [µg/mL] | MFC (Candida glabrata strains) [µg/mL] | further results
1 | CCCCCCOc1cccc(CNc2ccnc3ccccc23)c1 [Compound AC, N-[3-(Hexyloxy)benzyl]quinolin-4-amine] | −7.48 ± 5.82 | −15.14 ± 2.06 | −9.60 ± 1.96 | −44.25 ± 2.53 | 0.5 to 4 (≈ 1.49 to 12 µM) | 0.5 to 4 (≈ 1.49 to 12 µM) | 12.6 (≈ 4.2 µg/mL) | 0.12 to 0.25 (≈ 0.359 to 0.747 µM) | 0.5 (≈ 1.49 µM) | 0.5 (≈ 1.49 µM) | 0.5 to 1 (≈ 1.49 to 2.99 µM) | 16 to 64 (≈ 47.8 to 191 µM) | 0.12 to 1 (≈ 0.359 to 2.99 µM) | 0.5 to 2 (≈ 1.49 to 5.98 µM) | 2 (≈ 5.98 µM) | 0.5 to 1 (≈ 1.49 to 2.99 µM) | 1 to 2 (≈ 2.99 to 5.98 µM) | 1 to 2 (≈ 2.99 to 5.98 µM) | 2 to 4 (≈ 5.98 to 12 µM) | 4 to 8 (≈ 12 to 23.9 µM) | IC50 [2, 4]: 1.15 µM; MIC at 50% inhibition (Rhizopus strains; 24 hrs): <0.12-0.25; MIC at 100% inhibition (Rhizopus strains; 24 hrs): 0.5 µg/mL (≈ 1.49 µM); MIC (Rhizopus strains; read-out: MIC at 50% inhibition, 48 hr): 0.5 µg/mL (≈ 1.49 µM); MIC (Rhizopus strains; read-out: MIC at 100% inhibition, 48 hr): 0.5 to 1 µg/mL (≈ 1.49 to 2.99 µM); cidal activity (MFC within 4 dilutions of the MIC), in words (Candida albicans strains; 3 strains): cidal against 2 of the 3 C. albicans strains tested; MIC at 50% inhibition (Candida albicans strains; 24 hrs): <0.12-0.25; MIC at 100% inhibition (Candida albicans strains; 24 hrs): <0.12-1; MIC at 50% inhibition (Candida albicans strains; 48 hrs): <0.12-1; cidal activity (MFC within 4 dilutions of the MIC), in words (Candida glabrata strains): cidal against all of the C. glabrata strains tested; MIC at 100% inhibition ([3]; 48 hrs): 1 µg/mL (≈ 2.99 µM); MIC50 ([3]; 24 h): < 0.12 µg/mL; MIC ([3]; 24 h): 0.25 to 0.5 µg/mL (≈ 0.747 to 1.49 µM); MIC50 ([3]; 48 h): 0.5 to 1 µg/mL (≈ 1.49 to 2.99 µM); MIC ([3]; 48 h): 1 µg/mL (≈ 2.99 µM)
2 | CCCCCCCCCCNc1ccnc2ccccc12 [Compound AG, N-(Decyl)quinolin-4-amine] | −6.24 ± 0.69 | −21.28 ± 1.52 | −4.02 ± 2.83 | −38.58 ± 0.73 | 0.25 to 2 (≈ 0.879 to 7.03 µM) | 0.5 to 2 (≈ 1.76 to 7.03 µM) | 11.4 (≈ 3.23 µg/mL) | 1 to 2 (≈ 3.52 to 7.03 µM) | 2 (≈ 7.03 µM) | 2 to 4 (≈ 7.03 to 14.1 µM) | 2 to 4 (≈ 7.03 to 14.1 µM) | 4 to 16 (≈ 14.1 to 56.2 µM) | 0.5 to 2 (≈ 1.76 to 7.03 µM) | 1 to 4 (≈ 3.52 to 14.1 µM) | 2 to 4 (≈ 7.03 to 14.1 µM) | 0.25 to 1 (≈ 0.879 to 3.52 µM) | 0.5 to 2 (≈ 1.76 to 7.03 µM) | 0.5 to 2 (≈ 1.76 to 7.03 µM) | 0.5 to 2 (≈ 1.76 to 7.03 µM) | 4 (≈ 14.1 µM) | ability to inactivate pro-inflammatory THP-1 cells, in words (relative to benchmark AC) (THP-1 cells): higher activity than the active benchmark compound AC; IC50 [2, 6]: 2.14 µM; cidal activity (MFC within 4 dilutions of the MIC), in words (Candida glabrata strains): cidal against all of the C. glabrata strains tested; cidal activity (MFC within 4 dilutions of the MIC), in words ([3]; 3 strains): cidal against one of the A. fumigatus strains (MRL 28397); MIC50 ([3]; 24 h): 0.5 to 1 µg/mL (≈ 1.76 to 3.52 µM); MIC ([3]; 24 h): 1 µg/mL (≈ 3.52 µM); MIC50 ([3]; 48 h): 1 to 2 µg/mL (≈ 3.52 to 7.03 µM); MIC ([3]; 48 h): 1 to 2 µg/mL (≈ 3.52 to 7.03 µM)
3 | CCCCCCCCCCNc1ncnc2ccccc12 [Compound AH, N-(Decyl)quinazolin-4-amine] | −9.66 ± 1.34 | −26.55 ± 0.95 | −7.87 ± 0.98 | −35.51 ± 3.90 | 0.25 to 4 (≈ 0.876 to 14 µM) | 0.25 to 16 (≈ 0.876 to 56.1 µM) | 12 (≈ 3.43 µg/mL) | 0.25 to 0.5 (≈ 0.876 to 1.75 µM) | 2 (≈ 7.01 µM) | 2 (≈ 7.01 µM) | 2 (≈ 7.01 µM) | 64 (≈ 224 µM) | 0.12 to 4 (≈ 0.42 to 14 µM) | 1 to 4 (≈ 3.5 to 14 µM) | 4 to 32 (≈ 14 to 112 µM) | 2 (≈ 7.01 µM) | 4 to 8 (≈ 14 to 28 µM) | 4 to 8 (≈ 14 to 28 µM) | 4 to 8 (≈ 14 to 28 µM) | 8 to 64 (≈ 28 to 224 µM) | ability to inactivate pro-inflammatory THP-1 cells, in words (relative to benchmark AC) (THP-1 cells): higher activity than the active benchmark compound AC; IC50 [2, 4]: 0.39 µM; IC50 [2, 6]: 0.39 µM; MIC at 100% inhibition (Rhizopus strains; 24 hrs): 2 µg/mL (≈ 7.01 µM); MIC at 50% inhibition (Rhizopus strains; 48 hr): 2 µg/mL (≈ 7.01 µM); MIC at 100% inhibition (Rhizopus strains; 48 hr): 2 µg/mL (≈ 7.01 µM); MIC50 ([3]; 24 h): < 0.12 µg/mL; MIC ([3]; 24 h): 0.25 to 0.5 µg/mL (≈ 0.876 to 1.75 µM); MIC50 ([3]; 48 h): 0.25 to 1 µg/mL (≈ 0.876 to 3.5 µM); MIC ([3]; 48 h): 0.25 to 4 µg/mL (≈ 0.876 to 14 µM); MFC ([3]; range over Aspergillus fumigatus strains, in 48 hr): > 64 µg/mL
